In PubChem BioAssay (NCI):
Where “and” joins values, the source holds several entries; their conditions need not be identical. Equal entries are not always repeated.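 Results reflect a 48-hour exposure of cells in 96-well plates to compound at five concentrations. GI50: concentration for 50% inhibition of growth. TGI is the concentration that stops growth completely.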

Key:
Assay in all cases: inhibition of tumour cell growth, NCI panel, 48 h
MALME-3M melanoma = test system: MALME-3M melanoma
NCI-H522 lung = test system: NCI-H522 lung
RPMI-8226 leukemia = test system: RPMI-8226 leukemia
IGROV1 ovarian = test system: IGROV1 ovarian
CCRF-CEM leukemia = test system: CCRF-CEM leukemia
HOP-62 NSCLC = test system: HOP-62 NSCLC
LOX IMVI melanoma = test system: LOX IMVI melanoma
COLO 205 colon = test system: COLO 205 colon
UACC-62 melanoma = test system: UACC-62 melanoma
SNB-19 CNS = test system: SNB-19 CNS

| SMILES | GI50 (MALME-3M melanoma) | TGI (MALME-3M melanoma) | GI50 (NCI-H522 lung) | TGI (NCI-H522 lung) | GI50 (RPMI-8226 leukemia) | TGI (RPMI-8226 leukemia) | GI50 (IGROV1 ovarian) | TGI (IGROV1 ovarian) | GI50 (CCRF-CEM leukemia) | TGI (CCRF-CEM leukemia) | GI50 (HOP-62 NSCLC) | TGI (HOP-62 NSCLC) | GI50 (LOX IMVI melanoma) | TGI (LOX IMVI melanoma) | GI50 (COLO 205 colon) | TGI (COLO 205 colon) | GI50 (UACC-62 melanoma) | TGI (UACC-62 melanoma) | GI50 (SNB-19 CNS) | TGI (SNB-19 CNS) |
| --- | --- | --- | --- | --- | --- | --- | --- | --- | --- | --- | --- | --- | --- | --- | --- | --- | --- | --- | --- | --- |
| CC(C)=CCC[C@](C)(O)[C@H]1CC[C@]2(C)[C@@H]1CC[C@@H]1[C@@]3(C)CC/C(=N/O)C(C)(C)[C@@H]3CC[C@]12C | 8250 nM | 32.6 µM | 13.5 µM | 99 µM | 7680 nM | > 100 µM | 20 µM | 76.6 µM | 14200 nM | > 100 µM | 11100 nM | 40.9 µM | 15700 nM | 83 µM | 11400 nM | > 100 µM | 17800 nM | > 100 µM | 12.2 µM | > 100 µM |
| Cc1nc(-c2cn3c(n2)-c2ccc(-c4cnn(C(C)(C)C(N)=O)c4)cc2OCC3)n(C(C)C)n1 | – | 3.12 µM and > 10 µM | 5.73 µM and 6.01 µM | 26.7 µM and > 10 µM | 5900 nM and > 8930 nM | 28.5 µM and > 10 µM | < 0.0106 µM and 0.00612 µM | 0.0829 µM and 0.0677 µM | 338 nM and 765 nM | 27.8 µM and > 10 µM | 726 nM and 4510 nM | 60.4 µM and > 10 µM | 279 nM and 740 nM | 17.7 µM and > 10 µM | 109 nM and 203 nM | 16.6 µM and > 10 µM | 321 nM and 246 nM | 3.64 µM and 4.39 µM | 1.92 µM and 2.47 µM | > 100 µM |
| Cc1nc2ccccc2c(/C=C/c2ccc(Cl)cc2)c1C(=O)/C=C/c1ccc(C(F)(F)F)cc1 | 404 nM | 1.56 µM | 0.198 µM | 0.838 µM | 269 nM | 0.681 µM | 0.282 µM | 1.56 µM | 291 nM | > 100 µM | 877 nM | 2.31 µM | 181 nM | 0.361 µM | 1320 nM | 3.25 µM | 939 nM | 2.29 µM | 0.722 µM | 1.97 µM |
| Cn1cnc([N+](=O)[O-])c1Sc1nccn1-c1cccc2ccccc12 | – | 42.2 µM | – | 22.4 µM | – | 49.9 µM | – | > 100 µM | – | 68.5 µM | – | > 100 µM | – | 32.4 µM | – | 30.3 µM | – | 33.9 µM | – | > 100 µM |
| Nc1c(C(=O)Nc2cccc(F)c2)sc2nc3c(cc12)C(=O)CCC3 | 377 nM | > 100 µM | 0.371 µM | > 100 µM | > 34500 nM | > 100 µM | 3.02 µM | > 100 µM | 341 nM | > 100 µM | 685 nM | > 100 µM | 772 nM | > 100 µM | 273 nM | 0.751 µM | 491 nM | > 100 µM | 29.5 µM | > 100 µM |
| CCN(CC)CCCNCc1cc(-c2ccccc2)nc2ccccc12 | 7200 nM | 24.3 µM | 15.9 µM | 52.3 µM | 2530 nM | 16.5 µM | 23.1 µM | > 100 µM | 2220 nM | > 100 µM | 8270 nM | > 100 µM | 2320 nM | 11.4 µM | 15800 nM | 31.3 µM | 2550 nM | 8.37 µM | 14.2 µM | > 100 µM |
| C[C@@]12CCC[C@@](C)(C(=O)O)C1CC[C@]13C[C@@](O)(CO)[C@](O)(CCC12)C3 (some centres undefined) | > 100000 nM | > 100 µM | > 100 µM | > 100 µM | > 100000 nM | > 100 µM | > 100 µM | > 100 µM | > 100000 nM | > 100 µM | > 100000 nM | > 100 µM | > 100000 nM | > 100 µM | > 100000 nM | > 100 µM | > 100000 nM | > 100 µM | > 100 µM | > 100 µM |
| O=C(Nc1ccncc1)C(=O)c1cn(S(=O)(=O)c2ccc(Cl)cc2)c2ccccc12 | 894 nM | > 100 µM | 0.279 µM | 1.08 µM | 1440 nM | > 100 µM | 3.29 µM | > 100 µM | 3180 nM | > 100 µM | 1730 nM | 22 µM | 765 nM | > 100 µM | > 61500 nM | > 100 µM | 503 nM | 14.2 µM | 5.94 µM | 51.5 µM |
| COc1cc(N(C)C)c(OC)cc1/C=C\c1ccnc2ccccc12 | – | > 10 µM | – | > 10 µM | – | 7.32 µM | – | > 10 µM | – | 9.41 µM | – | > 10 µM | – | > 10 µM | – | > 10 µM | – | > 10 µM | – | > 10 µM |
| S=C(Nc1ccc(-c2nc3ccccc3[nH]2)cc1)Nc1ccc(-c2nc3ccccc3[nH]2)cc1 | 52500 nM | > 100 µM | 24.5 µM | 99.4 µM | 71800 nM | > 100 µM | 64.1 µM | > 100 µM | 92000 nM | > 100 µM | > 100000 nM | > 100 µM | > 100000 nM | > 100 µM | > 100000 nM | > 100 µM | 38600 nM | > 100 µM | > 100 µM | > 100 µM |
| O=C(NCCCO)c1cc(Cl)ccc1O | 1850 nM | 8.33 µM | 1.12 µM | 4.77 µM | 704 nM | 2.68 µM | 3.94 µM | 17 µM | 728 nM | 17.3 µM | 3860 nM | 13.4 µM | 2500 nM | 11.5 µM | 1950 nM | 5.85 µM | 3090 nM | 15.8 µM | 2.26 µM | 17.6 µM |
| O=c1c(Br)cc2nc3ccccc3sc-2c1Br | – | > 100 µM | – | 36.2 µM | – | > 100 µM | – | > 100 µM | – | > 100 µM | – | > 100 µM | – | > 100 µM | – | > 91 µM | – | 79.8 µM | – | > 100 µM |
| CC(=O)OC[C@@H](COC(=O)/C=C/c1ccc(O)cc1)OC1OC(CO)C(O)C(O)C1O (some centres undefined) | – | > 100 µM | – | > 100 µM | – | > 100 µM | – | > 100 µM | – | > 100 µM | – | > 100 µM | – | > 100 µM | – | > 100 µM | – | > 100 µM | – | > 100 µM |
| C=CC(=O)Nc1cc(C)ccc1Nc1nc(Nc2cc(OC)ncc2C)ncc1C(F)(F)F | 21.1 nM | 0.161 µM | 1.14 µM | > 31.6 µM | 634 nM | > 25.3 µM | 0.244 µM | 1.25 µM | 3730 nM | > 100 µM | 741 nM | > 66.7 µM | 142 nM | 1.03 µM | 55.5 nM | 1.48 µM | 72.5 nM | 0.71 µM | 0.936 µM | > 100 µM |
